Source: publication PMC8837603, “Lapcin, a potent dual topoisomerase I/II inhibitor discovered by soil metagenome guided total chemical synthesis” (Nature Communications, 2022)

Tests used:
U2OS (Bone) cells = assay: cells; assay type: cell-based, human
Description: An MTT (2-(4,5-dimethylthiazol-2-yl)−2,5-diphenyltetrazolium bromide) assay was used to determine the cytotoxicity of lapcin towards diverse cancer cell lines. Lapcin was dissolved in DMSO to make a 3.2 mg/mL working solution. For each cancer line detailed in Supplementary Table 5, cells at 80-90% confluency were counted and seeded in 96-well, flat bottom microplates and incubated at 37 °C with a 5% CO2 atmosphere. Outer wells were unused to avoid edge effects. After adhering for 24 h, the medium was sterilely aspirated and replaced with 100 µL of fresh medium containing lapcin or a control compound serially diluted at concentrations ranging from 8,000 to 0.00382 ng/mL. After 48 h (37 °C, 5% CO2), the medium was carefully removed and 110 µL of freshly prepared MTT solution (10 µL of 5 mg/mL MTT in PBS (pH 7.4) premixed with 100 µL of complete medium) was added to each well. After 3 h at 37 °C with 5% CO2, 100 µL of solubilization solution (40% DMF, 16% SDS and 2% acetic acid in H2O) was added to each well and precipitated formazan crystals were allowed to dissolve for 4 h. The absorbance of each well was then measured at 570 nm using a Tecan microplate reader.

Human Topo II = molecular target: T1, Human Topo II (Homo sapiens, UniProt P11388); assay: Human Topoisomerase II DNA decatenation assay; assay type: biochemical
T1 construct: purchased TopoGen, USA
Description: The decatenation assay was conducted using a Human Topo II decatenation kit (TopoGen, USA). […] Assays were performed according to the manufacturer’s protocol. Briefly, on ice, 19 µL of master mixture was prepared by adding 4 µL of freshly prepared 5 x assay buffer (0.5 M Tris-HCl pH8.0, 1.50 M NaCl, 100 mM MgCl2, 5 mM Dithiothreitol, 300 µg/mL BSA, 20 mM ATP), 1 µL of 200 ng/µL kDNA and 5 µL of serial diluted assay compounds in 200 µL reaction tubes. 1 µL of fresh diluted topoisomerase II (1U) was then added to each reaction tube. The total reaction volume was adjusted to 20 µL with H2O. These reactions were incubated at 37 °C for 30 min and stopped by addition of 4 µL of 5 x Stop Buffer (TopoGen, USA). Samples were loaded directly onto a 1% (w/v) agarose gel containing 0.5 µg/ml ethidium bromide and separated at 140 v for 1 hour in 0.5% TBE buffer. The intensity of released (decatenated) circular rings was quantified using Analytik Jena image software. All values were normalized to the negative control wells. The intensity of decatenated band was used in the determination of IC50 of tested compounds and the curve was drawn in Prism 9 (9.0.0). All experiments were performed in triplicate (n = 3).

[1] = tested on: human topoisomerase II alpha; assay: Topoisomerase II DNA cleavage assay; assay type: biochemical; conditions: supercoil pBR322, ATP, 30 min, 37 °C; linear DNA; two independent times
Description: Topoisomerase I/II cleavage assay: A commercial Human topoisomerase cleavage assay kit (Inspiralis, UK) was used in this study with a slight modification. Camptothecin (Sigma, USA) and Etoposide (Sigma, USA) were used as the positive control for topoisomerase I cleavage assay and topoisomerase II cleavage assay, respectively. The assay was performed according to the manufacture’s protocol. Briefly, 29 µL of the master mixture was prepared by adding 3 µL of 10 x assay buffer, 1 µL of 1 µg/µL supercoil pBR322, 1 µL of 30 mM ATP (only used in topoisomerase II cleavage assay), 1.5 µL serial diluted compounds (dissolved in DMSO) and H2O. Finally, 1 µL of 10 U/µL human topoisomerase I/II alpha was added to the reaction mixture. The reaction was incubated for 30 minutes at 37℃. After incubation, 3 µL of 2% (w/v) SDS and 1.5 µL of 10 mg/mL proteinase K was added. The reaction was mixed briefly and incubated for another 30 minutes at 37 ℃. The reaction was stopped by added 10 µL of H2O, 40 µL of STEB stop buffer and 40 µL of Chloroform/isoamyl alcohol (v:v, 24:1). The mixture was vortexed vigorously for 10 secs and centrifuged for 2 minutes. 20 µL of aqueous phase was loaded onto 1% (w/v) agarose gel and separated at 80 V for 2 hours in 0.5% TBE buffer. […]

[2] = tested on: Acinetobacter baumannii ATCC17978; conditions: LB, 16 h, 37 °C, n = 2
Description: (§1) Lapcin was tested for antimicrobial activity against the bacteria and fungi shown in Supplementary Table 4. […] Lapcin was dissolved in sterile DMSO to make a 3.2 mg/mL working solution. Lapcin was diluted across 96-well plates using a 2-fold serial dilution method to give a concentration range of 64 to 0.06 µg/mL in 50 µL of LB broth. A single colony of each test organism was grown in either 5 mL LB (bacteria) or YPD (fungi) medium overnight at 37 °C or 30 °C, respectively. Saturated overnight cultures were diluted 5,000-fold, and then 50 µL of dilute cells were transferred into each well of the assay plates. Finally, each well contains a total volume of 100 µL.

[3] = tested on: Enterobacter cloacae ATCC13047; conditions: LB, 16 h, 37 °C, n = 2
Description: as §1

[4] = tested on: Klebsiella pneumonia ATCC10031; conditions: LB, 16 h, 37 °C, n = 2
Description: as §1

T1 sequence (P11388 whole entry): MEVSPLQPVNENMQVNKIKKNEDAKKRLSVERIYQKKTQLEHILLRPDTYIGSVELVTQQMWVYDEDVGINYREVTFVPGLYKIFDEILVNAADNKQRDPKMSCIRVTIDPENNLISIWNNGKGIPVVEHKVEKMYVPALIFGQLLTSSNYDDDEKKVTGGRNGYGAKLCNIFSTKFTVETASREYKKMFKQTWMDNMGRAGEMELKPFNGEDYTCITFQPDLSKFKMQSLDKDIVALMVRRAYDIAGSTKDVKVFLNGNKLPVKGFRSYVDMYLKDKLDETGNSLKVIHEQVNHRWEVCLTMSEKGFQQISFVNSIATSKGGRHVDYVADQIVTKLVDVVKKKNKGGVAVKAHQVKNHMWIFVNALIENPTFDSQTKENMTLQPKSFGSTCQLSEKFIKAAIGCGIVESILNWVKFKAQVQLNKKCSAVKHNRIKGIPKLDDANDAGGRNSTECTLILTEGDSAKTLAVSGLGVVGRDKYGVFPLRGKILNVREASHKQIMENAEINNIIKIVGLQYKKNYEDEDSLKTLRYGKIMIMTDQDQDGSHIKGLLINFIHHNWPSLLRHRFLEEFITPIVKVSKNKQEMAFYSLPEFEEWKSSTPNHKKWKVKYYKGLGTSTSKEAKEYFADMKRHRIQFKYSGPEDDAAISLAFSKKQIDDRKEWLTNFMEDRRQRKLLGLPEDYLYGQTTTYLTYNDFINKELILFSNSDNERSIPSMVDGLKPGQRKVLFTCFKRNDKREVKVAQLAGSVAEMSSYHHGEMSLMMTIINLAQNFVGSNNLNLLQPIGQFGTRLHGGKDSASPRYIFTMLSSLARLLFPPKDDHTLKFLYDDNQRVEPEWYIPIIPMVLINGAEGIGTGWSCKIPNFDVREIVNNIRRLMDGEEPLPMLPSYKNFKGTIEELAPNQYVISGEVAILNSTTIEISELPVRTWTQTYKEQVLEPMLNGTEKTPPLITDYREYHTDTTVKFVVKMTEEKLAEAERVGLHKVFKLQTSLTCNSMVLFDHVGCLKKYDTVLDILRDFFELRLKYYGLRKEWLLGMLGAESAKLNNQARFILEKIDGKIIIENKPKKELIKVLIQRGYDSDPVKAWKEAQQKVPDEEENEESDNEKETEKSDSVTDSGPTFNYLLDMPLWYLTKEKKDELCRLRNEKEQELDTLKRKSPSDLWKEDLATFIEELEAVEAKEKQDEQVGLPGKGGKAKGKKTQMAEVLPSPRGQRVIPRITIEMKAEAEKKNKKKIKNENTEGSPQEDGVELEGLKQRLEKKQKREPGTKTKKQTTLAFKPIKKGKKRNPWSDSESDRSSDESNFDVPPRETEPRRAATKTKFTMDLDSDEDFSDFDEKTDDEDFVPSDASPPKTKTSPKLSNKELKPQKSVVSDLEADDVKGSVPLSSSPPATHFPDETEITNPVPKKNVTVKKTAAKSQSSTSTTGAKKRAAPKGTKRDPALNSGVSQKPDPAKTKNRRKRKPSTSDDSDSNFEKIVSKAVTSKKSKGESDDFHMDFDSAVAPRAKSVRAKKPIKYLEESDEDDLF

SMILES: CCCCCCCCCCCC(O)CC(=O)N[C@@H](C)C(=O)N[C@@H](CO)C(=O)N[C@@H](C)C(=O)Nc1ccc(-c2nc(-c3nc(C(=O)N[C@@H](CC(N)=O)C(=O)Nc4ccc(C(=O)Nc5ccc(C(=O)Nc6ccc(C(=O)O)cc6)c(O)c5OC(C)C)cc4)cs3)cs2)cc1 (stereo partly drawn) [Lapcin, 4-(4-(4-((2S)-4-amino-2-(2'-(4-((2S)-2-((2S)-3-hydroxy-2-((2S)-2-(3-hydroxytetradecanamido)propanamido)propanamido)propanamido)phenyl)-[2,4'-bithiazole]-4-carboxamido)-4-oxobutanamido)benzamido)-2-hydroxy-3-isopropoxybenzamido)benzoic acid]
- IC50 (U2OS (Bone) cells; bone cancer, MTT, 48 h, 37 °C, DMEM + 10% FBS + NEAA, 2,500 cells/well, absorbance 570 nm, n = 3 biologically independent): 0.00129 µM
- activity against U2OS in words (U2OS (Bone) cells; human bone osteosarcoma epithelial cell line U2OS): retained potent activity
- fold more potent than etoposide, topoisomerase II (Human Topo II): ~15 times
- IC50 (Human Topo II; kDNA, 1 U enzyme, 30 min, 37 °C, gel, ethidium bromide, n = 3): 7.53 µM
- accumulation of cleavage product, Topo II [1]: did not observe the accumulation of a cleavage product
- MIC, Acinetobacter baumannii [2]: > 32 µg/mL
- MIC, Enterobacter cloacae [3]: > 32 µg/mL
- MIC, Klebsiella pneumonia [4]: > 32 µg/mL
